# Source: patent publication US20250230165A1, “HETEROCYCLIC COMPOUNDS FOR USE IN THE TREATMENT OF CANCER” (ARTIOS PHARMA LIMITED, priority 2021, published 2025)
# Target: T1, Human Polθ polymerase domain (aa1820-2590) (Homo sapiens, UniProt O75417)
# T1 construct: Human Polθ polymerase domain (aa1820-2590) was expressed in E. coli; made in house; host or cells: E. coli
# T1 sequence (O75417 1820-2590): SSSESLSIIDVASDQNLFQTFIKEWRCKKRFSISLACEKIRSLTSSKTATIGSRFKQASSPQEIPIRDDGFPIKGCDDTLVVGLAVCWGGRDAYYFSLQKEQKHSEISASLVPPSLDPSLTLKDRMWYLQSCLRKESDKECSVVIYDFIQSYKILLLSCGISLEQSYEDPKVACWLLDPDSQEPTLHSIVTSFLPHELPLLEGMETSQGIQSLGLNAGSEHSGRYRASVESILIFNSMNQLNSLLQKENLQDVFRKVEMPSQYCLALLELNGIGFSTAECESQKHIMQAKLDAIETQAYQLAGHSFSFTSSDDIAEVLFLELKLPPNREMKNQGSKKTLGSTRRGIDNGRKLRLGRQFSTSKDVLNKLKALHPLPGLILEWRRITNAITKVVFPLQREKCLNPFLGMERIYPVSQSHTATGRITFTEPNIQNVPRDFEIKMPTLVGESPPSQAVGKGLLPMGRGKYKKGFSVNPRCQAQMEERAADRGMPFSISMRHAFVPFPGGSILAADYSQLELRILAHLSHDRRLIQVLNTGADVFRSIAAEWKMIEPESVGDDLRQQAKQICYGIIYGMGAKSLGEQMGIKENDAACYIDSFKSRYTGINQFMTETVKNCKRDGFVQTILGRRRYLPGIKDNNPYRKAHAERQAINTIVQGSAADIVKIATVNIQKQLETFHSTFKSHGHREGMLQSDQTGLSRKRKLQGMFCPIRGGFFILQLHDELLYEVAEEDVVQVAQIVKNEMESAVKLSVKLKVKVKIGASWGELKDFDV
# Experiment: Polθ Polymerase Domain Kinact/KI Assay (PicoGreen)
# Format: biochemical
# Details: 0.8 nM Polθ, 100 nM DNA substrate, kobs vs [I] fit for 2-step covalent inhibitor
# Procedure, shortened: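 PicoGreen fluorescence read-out of primer extension; progress curves per inhibitor concentration fitted for kobs, then kobs vs [I] fitted to a two-step covalent model to give Kinact and KI. Conditions: 0.8 nM enzyme, 100 nM DNA substrate, […].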
row,Kinact/Kl [M⁻¹ s⁻¹],SMILES
1,39000,"Cc1cc(C(F)(F)F)cc(N2C(=O)C[C@@H]3CN(Cc4cn5c(n4)CN(C(=O)CCl)C(C)C5)c4c(Cl)cccc4N(C)C(=O)[C@H]32)n1 (mixture of isomers) [Example 73a, (3aR,11aS)-6-chloro-5-(((R/S)-7-(2-chloroacetyl)-6-methyl-5,6,7,8-tetrahydroimidazo[1,2-a]pyrazin-2-yl)methyl)-10-methyl-1-(6-methyl-4-(trifluoromethyl)pyridin-2-yl)-1,3a,4,5,10,11a-hexahydro-2H-benzo[b]pyrrolo[2,3-f][1,4]diazocine-2,11(3H)-dione]"
2,1.06e+06,"C=CC(=O)N1C[C@H]2C[C@@H]1CN2CCN1C[C@H]2CC(=O)N(c3cc(C(F)(F)F)cc(C)n3)[C@@H]2C(=O)N(C)c2cccc(C)c21 [Example 263, (3aR,11aS)-5-(2-((1R,4R)-5-acryloyl-2,5-diazabicyclo[2.2.1]heptan-2-yl)ethyl)-6,10-dimethyl-1-(6-methyl-4-(trifluoromethyl)pyridin-2-yl)-1,3a,4,5,10,11a-hexahydro-2H-benzo[b]pyrrolo[2,3-f][1,4]diazocine-2,11(3H)-dione]"
3,1.66e+06,"C=CC(=O)N1Cc2nc(CN3C[C@H]4CC(=O)N(c5cc(C(F)(F)F)cc(C)n5)[C@@H]4C(=O)N(C)c4cccc(C)c43)ccc2[C@H]1CC#N (racemic) [Example 319b, 2-((R/S)-6-acryloyl-2-(((3aR,11aS)-6,10-dimethyl-1-(6-meth-yl-4-(trifluorometh-yl)pyridin-2-yl)-2,11-dioxo-1,2,3,3a, 4,10,11,11a-octa-hydro-5H-benzo[b]pyrrolo[2,3-f][1,4]diazocin-5-yl)meth-yl)-6,7-dihydro-5H-pyrrolo[3,4-b]pyr-idin-5-yl)acetonitrile]"
4,2.58e+06,"C=C(CN1CCN(C)CC1)C(=O)N1CC(COCCN2C[C@H]3CC(=O)N(c4cc(C(F)(F)F)cc(C)n4)[C@@H]3C(=O)N(C)c3cccc(C)c32)C1 [Example 193, (3aR,11aS)-6,10-dimethyl-1-(6-methyl-4-(trifluoro-methyl)pyridin-2-yl)-5-(2-((1-(2-((4-methylpiperazin-1-yl)methyl)acrylo-yl)azetidin-3-yl)-methoxy)ethyl)-1,3a,4,5,10,11a-hexahydro-2H-benzo[b]pyrrolo [2,3-f][1,4]diazo-cine-2,11(3H)-dione]"
5,1.86e+06,"C=CC(=O)N1CCn2cc(CN3C[C@H]4CC(=O)N(c5cc(C(F)(F)F)cc(C)n5)[C@@H]4C(=O)N(C)c4cccc(F)c43)nc2C1 [Example 132, (3aR,11aS)-5-((7-acryloyl-5,6,7,8-tetrahydroimidazo[1,2-a]pyrazin-2-yl)methyl)-6-fluoro-10-methyl-1-(6-methyl-4-(trifluoromethyl)pyridin-2-yl)-1,3a,4,5,10,11a-hexahydro-2H-benzo[b]pyrrolo[2,3-f][1,4]diazocine-2,11(3H)-dione]"
6,730000,"C=CC(=O)N1Cc2ncc(CN3C[C@H]4CC(=O)N(c5cc(C(F)(F)F)cc(C)n5)[C@@H]4C(=O)N(C)c4cccc(Cl)c43)nc2C1 [Example 229, (3aR,11aS)-5-((6-acryloyl-6,7-dihydro-5H-pyrrolo[3,4-b]pyrazin-2-yl)methyl)-6-chloro-10-methyl-1-(6-methyl-4-(trifluoromethyl)pyridin-2-yl)-1,3a,4,5,10,11a-hexahydro-2H-benzo[b]pyrrolo[2,3-f][1,4]diazocine-2,11(3H)-dione]"
7,3e+06,"Cc1cc(C(F)(F)F)cc(N2C(=O)C[C@@H]3CN(CCCC(F)(F)CNC(=O)/C=C/CN(C)C)c4c(Cl)cccc4N(C)C(=O)[C@H]32)n1 [Example 296, (E)-N-(5-((3aR,11aS)-6-chloro-10-methyl-1-(6-methyl-4-(trifluoromethyl)pyridin-2-yl)-2,11-dioxo-1,2,3,3a,4,10,11,11a-octahydro-5H-benzo[b]pyrrolo[2,3-f][1,4]diazocin-5-yl)-2,2-difluoropentyl)-4-(dimethylamino)but-2-enamide]"
8,1.89e+06,"C=CC(=O)N1CC2(CN(CCN3C[C@H]4CC(=O)N(c5cc(C(F)(F)F)cc(C)n5)[C@@H]4C(=O)N(C)c4cccc(Cl)c43)CC2C#N)C1 (single isomer, unassigned) [Example 117a]"
9,1.55e+06,"C=CC(=O)N1Cc2ccc(CN3C[C@H]4CC(=O)N(c5cc(C(F)(F)F)cc(C)n5)[C@@H]4C(=O)N(C)c4cccc(C)c43)nc2C1 [Example 240, (3aR,11aS)-5-((6-acryloyl-6,7-dihydro-5H-pyrrolo[3,4-b]pyridin-2-yl)methyl)-6,10-dimethyl-1-(6-methyl-4-(trifluoromethyl)pyridin-2-yl)-1,3a,4,5,10,11a-hexahydro-2H-benzo[b]pyrrolo[2,3-f][1,4]diazocine-2,11(3H)-dione]"
10,3.35e+06,"C=C(CN(C)C)C(=O)N1CC(OCCCN2C[C@H]3CC(=O)N(c4cc(C(F)(F)F)cc(C)n4)[C@@H]3C(=O)N(C)c3cccc(F)c32)C1 [Example 150, (3aR, 11aS)-5-(3-((1-(2-((dimethylamino)methyl)acryloyl)azetidin-3-yl)oxy)propyl)-6-fluoro-10-methyl-1-(6-methyl-4-(trifluoromethyl)pyridin-2-yl)-1,3a,4,5,10,11a-hexahydro-2H-benzo[b]pyrrolo[2,3-f][1,4]diazocine-2,11(3H)-dione]"
11,1.82e+06,"Cc1cc(C(F)(F)F)cc(N2C(=O)C[C@@H]3CN(Cc4ccc(NC(=O)/C=C/CN(C)C)cc4)c4c(C)cccc4N(C)C(=O)[C@H]32)n1 [Example 207, (E)-N-(4-(((3aR, 11aS)-6,10-dimethyl-1-(6-methyl-4-(trifluoromethyl)pyridin-2-yl)-2,11-dioxo-1,2,3,3a,4,10,11,11a-octahydro-5H-benzo[b]pyrrolo[2,3-f][1,4]diazocin-5-yl)methyl)phenyl)-4-(dimethylamino) but-2-enamide]"
12,1.28e+06,"C=CC(=O)N1Cc2nc(CN3C[C@H]4CC(=O)N(c5cc(C(F)(F)F)cc(C)n5)[C@@H]4C(=O)N(C)c4cccc(Cl)c43)cn2CC1C(F)(F)F (single isomer, unassigned) [Example 293b]"
13,1.08e+06,"C=CC(=O)NC12CC(CN3C[C@H]4CC(=O)N(c5cc(C(F)(F)F)cc(C)n5)[C@@H]4C(=O)N(C)c4cccc(C)c43)(C1)C2 [Example 174, N-(3-(((3aR,11aS)-6,10-dimethyl-1-(6-methyl-4-(tri-fluoromethyl)pyr-idin-2-yl)-2,11-dioxo-1,2,3,3a,4, 10,11,11a-octa-hydro-5H-benzo [b]pyrrolo[2,3-f] [1,4]diazocin-5-yl)methyl)bicyclo [1.1.1]pentan-1-yl)acrylamide]"
14,2.52e+06,"C=CC(=O)N1Cc2cc(CN3C[C@H]4CC(=O)N(c5cc(C(F)(F)F)cc(C)n5)[C@@H]4C(=O)N(C)c4cccc(Cl)c43)cnc2C1CC#N (single isomer, unassigned) [Example 292b]"
15,1.59e+06,"C=CC(=O)N1CC(N2CCC(F)(CN3C[C@H]4CC(=O)N(c5cc(C(F)(F)F)cc(C)n5)[C@@H]4C(=O)N(C)c4cccc(Cl)c43)CC2)C1 [Example 217, (3aR,11aS)-5-((1-(1-acryloylazetidin-3-yl)-4-fluoropiperidin-4-yl)methyl)-6-chloro-10-methyl-1-(6-methyl-4-(trifluoromethyl)pyridin-2-yl)-1,3a,4,5,10,11a-hexahydro-2H-benzo[b] pyrrolo[2,3-f] [1,4]diazocine-2,11(3H)-dione]"
